Reference: paper PMC9268166, “Modeling of Anticancer Sulfonamide Derivatives Lipophilicity by Chemometric and Quantitative Structure-Retention Relationships Approaches” (Molecules, 2022)

What was measured:
[1] = Phenyl (Ph) chromatography, logkw from two gradients with DryLab; assay type: physicochemical; conditions: for logkw, Table S6: Phenyl chromatography, pH 7.4, short and long gradient; for logkwPh: pH 7.4, 40 °C, retention factor extrapolated to 0% organic modifier
From the text: (§1) For this reason, the next step of our study concerns the characterization of investigated sulfonamide derivatives using a chromatographic approach. Generally, in RP-HPLC, the interactions between solutes and the stationary phase surface are mainly governed by lipophilicity. Consequently, RP-HPLC is the primary tool for assessing the lipophilicity of xenobiotics. […] Generally, the chemical character of target solutes determines interactions between the molecule and the stationary phase that may occur. Considering the large variety of RP-HPLC beds and differences in specific surface area, the energy of the sorbent’s intermolecular interactions between solutes and chemical structures, four different reversed-phase stationary phases and IAM column were investigated during this study. The lipophilicity index was presented as a logkw value, so the retention factor was extrapolated to the pure water after calculation using a protocol based on two gradient measurements and DryLab software.
(§2) Since the biomimetic chromatography experiments are carried out at physiological pH to compare obtained results, all chromatographic experiments have been carried out at pH 7.4. […] Consequently, the chromatography lipophilicity indices refer to the distribution coefficient (logD) values, which better reflect the lipophilicity of ionized substances under physiological conditions.
(§3) For C8, cyanopropyl, and phenyl chromatography, according to the assumption proposed by Snyder and co-workers, appropriate logkw values (i.e., the retention factor logk extrapolated to 0% organic modifier, as an alternative to logP) were obtained. […] Dwell volume for these HPLC systems was measured at 0.780 mL, whereas the obtained dead times for used HPLC columns were equal to 1.530 min, 1.252 min, and 2.335 min for C8, SB-CN, and UK-Phenyl, respectively. The mobile phase was ammonium acetate buffer (50 mM) at pH 7.4 and acetonitrile as an organic modifier in each system. C8 chromatography was performed on Unison UK-C8 column (150 × 2 mm; 3.0 µm. Imtakt; USA) with 0.3 mL/min flow rate. Analyses were carried out in linear gradient from 30 to 100% within 15 min in short gradient and 30 min in long gradient. The Agilent SB-CN column (150 × 4.6 mm; 3.5 µm; Zorbax; USA) was used for the cyanopropyl chromatography. The CN chromatography analyses were carried out in linear gradient from 20 to 100%, which was applied from 0 to 20 min in short gradient, and from 0 to 40 min in long gradient. The flow rate was 1.5 mL/min. The column Unison UK-Phenyl (150 × 2 mm; 3.0 µm; Imtakt; USA) was used to perform phenyl chromatography. The flow rate was set to 0.2 mL/min. The phenyl analyses were carried out in linear gradient from 40 to 100%, which was applied from 0 to 20 min in short gradient, and from 0 to 40 min in long gradient. Each HPLC analysis was run in triplicate; in Tables S2–S6, obtained retention times are listed, whereas representative chromatograms are shown in Figure 9.

[2] = Cyanopropyl (CN) chromatography, logkw from two gradients with DryLab; assay type: physicochemical; conditions: for logkw, Table S5: Cyanopropyl chromatography, pH 7.4, short and long gradient; for logkwCN: pH 7.4, 40 °C, retention factor extrapolated to 0% organic modifier
From the text: as §1, §2, §3

[3] = C18 chromatography (RP-HPLC), chromatographic hydrophobicity index; assay type: physicochemical; conditions: for chromatographic logD: Waters Symmetry C18 column, CHI log D = 0.0525 CHIC18 − 1.467, pH 7.4; for CHIC18: pH 7.4, 40 °C, acetonitrile gradient
From the text: as §1, §2
(§4) All HPLC experiments were carried out using a Prominence-1 LC-2030C 3D HPLC system (Shimadzu, Japan) equipped with a DAD detector and controlled by the LabSolution system (version 5.90 Shimadzu, Japan). The stock solutions of solutes were diluted to obtain 100 μg/mL concentrations, and the injected volume was 10 μL. During this study, six different columns in terms of chemical modification of stationary phases were used. Retention times (tR) of investigated sulfonamides were collected, and their detection in all systems was performed at the wavelength characteristic for each compound, summarized in Table S1. For all chromatography systems, analysis was carried out at 40 °C, except for IAM chromatography, in which oven temperature was set to 30 °C. The CHIIAM and CHI18 indices of the target sulfonamides derivatives were obtained using the protocol proposed by Valko and co-workers. C18 chromatography was performed on a Waters-C18 column (150 mm × 3.9 mm; 5.0 µm; Symmetry; USA), with a 1.5 mL/min flow rate. The mobile phase was ammonium acetate buffer (50 mM) at pH 7.4 and acetonitrile as an organic modifier. The linear gradient from 2 to 98% ACN was applied from 0 to 30 min. IAM chromatography was executed on an IAM.PC.DD2 column ([…] × 4.6 mm; 10.0 µm; Regis Technologies, Morton Grove, IL, USA) additionally equipped with an IAM guard column with the same flow rate of 1.5 mL/min. The mobile phase was sodium phosphate buffer (10 mM) at pH 7.4 and acetonitrile as the organic phase. The linear gradient from 0 to 85% was applied within 5.25 min.

[4] = IAM chromatography (IAM-HPLC), IAM.PC.DD2 column; assay type: physicochemical; conditions: for CHI (CHIIAM), Table S2: IAM chromatography, from mean of three retention times; for logkIAM: logkIAM = 0.045 CHIIAM + 0.42
From the text: as §1, §2, §4

[5] = C8 chromatography (RP-HPLC), logkw from two gradients with DryLab; assay type: physicochemical; conditions: for logkw, Table S4: C8 chromatography, pH 7.4, short and long gradient; for logkwC8: pH 7.4, 40 °C, retention factor extrapolated to 0% organic modifier
From the text: as §1, §2, §3

[6] = tested on: human colon cancer (HCT-116); design: method as in PMID 29772699, PMID 28122174, PMID 27338337, PMID 26506328; conditions: HCT-116 cell line; cited from earlier work

Row | Structure (SMILES) | logkw, Table S6 [1] | logkwPh [1] | logkw, Table S5 [2] | logkwCN [2] | chromatographic logD [3] | CHIC18 [3] | CHI (CHIIAM), Table S2 ([4]; pH 7.4) | lipophilicity rank by the chromatographic experiments ([4]; based on the experimental data of all chromatographic systems, pH 7.4) | logkIAM ([4]; pH 7.4) | logkw, Table S4 [5] | logkwC8 [5] | pIC50 [6] | CHIIAM ([4]; pH 7.4, 30 °C, acetonitrile gradient)
1 | Cc1ccnc(NS(=O)(=O)c2ccc(-n3cccc3)cc2)n1 [Compound 1] | 2.620 | 2.62 | 1.580 | 1.58 | 1.51 | 56.70 | 19.2 | least lipophilic | 1.28 | 2.980 | 2.98 | 4.34 | 
2 | O=S(=O)(Nc1cccc2cccnc12)c1ccc(-n2cccc2)cc1 [Compound 2] | 6.221 | 6.22 | 4.040 | 4.04 | 3.65 | 97.50 | 45.0 |  | 2.45 | 4.682 | 4.68 | 6.00 | 
3 | Cc1ccc2cccnc2c1NS(=O)(=O)c1ccc(-n2cccc2)cc1 [Compound 3] | 5.556 | 5.56 | 2.966 | 2.97 | 3.51 | 94.80 | 42.0 |  | 2.31 | 4.593 | 4.59 | 4.72 | 
4 | Cc1ccc2cccc(NS(=O)(=O)c3ccc(-n4cccc4)cc3)c2n1 [Compound 4] | 7.389 | 7.39 | 3.628 | 3.63 | 4.04 | 104.80 | 45.9 |  | 2.49 | 4.898 | 4.90 | 5.05 | 
5 | O=S(=O)(Nc1cccc2nsnc12)c1ccc(-n2cccc2)cc1 [Compound 5] | 4.079 | 4.08 | 2.300 | 2.30 | 2.89 | 82.90 | 31.4 |  | 1.83 | 4.055 | 4.06 | 4.64 | 
6 | O=S(=O)(Nc1ccc(Cl)cc1)c1ccc(-n2cccc2)cc1 [Compound 6] | 5.391 | 5.39 | 2.892 | 2.89 | 3.5 | 94.70 | 45.4 |  | 2.46 | 4.609 | 4.61 | 4.15 | 
7 | Cc1cc(C)nc(NS(=O)(=O)c2ccc(-n3cccc3)cc2)n1 [Compound 7] | 2.810 | 2.81 | 1.780 | 1.78 | 1.88 | 63.80 | 24.3 |  | 1.51 | 3.300 | 3.30 | 4.16 | 
8 | Cc1cc(S(=O)(=O)Nc2nnc(-c3ccccc3)c(=O)[nH]2)c(SCc2ccc(C(F)(F)F)cc2)cc1Cl [Compound 8] | 4.490 | 4.49 | 2.010 | 2.01 | 2.88 | 82.80 | 36.7 |  | 2.07 | 4.206 | 4.21 | 4.10 | 
9 | Cc1cc(S(=O)(=O)Nc2nnc(C)c(=O)[nH]2)c(SCc2cccc3ccccc23)cc1Cl [Compound 9] | 2.880 | 2.88 | 1.850 | 1.85 | 2.33 | 72.30 | 31.4 |  | 1.83 | 3.692 | 3.69 | 4.07 | 
10 | Cc1cc(S(=O)(=O)Nc2nnc(-c3ccccc3)c(=O)[nH]2)c(SCc2cccc3ccccc23)cc1Cl [Compound 10] | 4.193 | 4.19 | 2.251 | 2.25 | 2.96 | 84.30 | 39.1 |  | 2.18 | 4.211 | 4.21 | 4.05 | 
11 | Cc1cc(S(=O)(=O)Nc2nnc(Cc3ccccc3)c(=O)[nH]2)c(SCc2cc3c(cc2Cl)OCO3)cc1Cl [Compound 11] | 3.824 | 3.82 | 2.130 | 2.13 | 2.75 | 80.30 | 35.5 |  | 2.02 | 4.074 | 4.07 | 4.06 | 
12 | Cc1cc(S(=O)(=O)Nc2nnc(Cc3ccccc3[N+](=O)[O-])c(=O)[nH]2)c(SCc2cc3c(cc2Cl)OCO3)cc1Cl [Compound 12] | 3.897 | 3.90 | 2.162 | 2.16 | 2.7 | 79.30 |  |  | 2.00 | 4.070 | 4.07 | 4.06 | 35.20
13 | Cc1cc(S(=O)(=O)Nc2nncc(-c3cccc(F)c3)n2)c(SCc2ccccc2)cc1Cl [Compound 13] | 3.532 | 3.53 | 2.037 | 2.04 | 2.62 | 77.90 | 37.1 |  | 2.09 | 4.030 | 4.03 | 4.12 | 
14 | CC(=O)NS(=O)(=O)c1cc(C)c(Cl)cc1SCc1cccc2ccccc12 [Compound 26] | 2.870 | 2.87 | 1.763 | 1.76 | 2.95 | 84.10 | 30.6 |  | 1.80 | 3.655 | 3.66 |  | 
15 | Cc1cc(S(=O)(=O)NC(=O)C=Cc2ccccc2)c(SCc2cccc3ccccc23)cc1Cl [Compound 27] | 4.460 | 4.46 | 2.313 | 2.31 | 2.37 | 73.10 | 39.6 |  | 2.20 | 4.279 | 4.28 |  | 
